The results in this text go back to patent US11839212B2, “Synergistic pesticidal compositions and methods for delivery of insecticidal active ingredients” (0903608 B.C. Ltd., priority 2018, dated 2023).

Holding throughout (assay): Synergistic Growth Inhibition Assay (MIC and FIC index, 96-well, resazurin)
What all share (format): cell-based
In general terms: Resazurin is reduced to fluorescent resorufin, in cell work by metabolically active cells.

Assay [1] relates to Sclerotinia sclerotiorum. Conditions: Sclerotinia sclerotiorum, […], Compound B alone, read-out: MIC (B). In a few lines: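 Checkerboard of pesticidal active ingredient combined with C6–C10 (or C11/C12) aliphatic acids in serial dilutions against Sclerotinia sclerotiorum. Growth scored by resazurin colour change plus visual inspection; FIC index is the sum of each agent's concentration divided by its MIC alone, with 1 indicating additivity.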

Assay [2] deals with Alternaria solani. The settings on record: Alternaria solani, […], Compound B alone, 7 days incubation, read-out: MIC (B). How it is done:
In some embodiments, the synergistic action between the pesticidal active ingredient, and the at least one C6-C10 (or alternatively C11 or C12) saturated or unsaturated aliphatic acid components of the pesticidal compositions according to embodiments of the present disclosure was tested using a Synergistic Growth Inhibition Assay, which is derived from and related to a checkerboard assay as is known in the art for testing of combinations of antimicrobial agents. In the Synergistic Growth Inhibition Assay used in accordance with some embodiments of the present disclosure, multiple dilutions of combinations of pesticidal active ingredient and at least one C6-C10 saturated or unsaturated aliphatic acid agents are tested in individual cells for inhibitory activity against a target pest or pathogenic organism. In one such embodiment, the combinations of pesticidal active ingredient and C6-C10 (or alternatively C11 or C12) saturated or unsaturated aliphatic acid agents may preferably be tested in decreasing concentrations. In a further such embodiment, the combinations of pesticidal active ingredient and C6-C10 (or alternatively C11 or C12) saturated or unsaturated aliphatic acid agents may be tested in increasing concentrations. These multiple combinations of the pesticidal active ingredient and at least one C6-C10 (or alternatively C11 or C12) saturated or unsaturated aliphatic acid agents may be prepared in 96-well microtiter plates. In one such embodiment, the Synergistic Growth Inhibition Assay then comprises rows which each contain progressively decreasing concentrations of the pesticidal active ingredient and one or more C6-C10 (or alternatively C11 or C12) saturated or unsaturated aliphatic acid agents to test for the MIC of the agents in combination at which growth of the target pest or pathogen is inhibited. Thus, each well of the microtiter plate is a unique combination of the two agents, at which inhibitory efficacy of the combination against the target pest or pathogen can be determined.
In one embodiment according to the present disclosure, for each row of microtiter cells in the Synergistic Growth Inhibition Assay, the FIC index is calculated from the lowest concentration of the pesticidal active ingredient and one or more C6-C10 saturated or unsaturated aliphatic acid agents necessary to inhibit growth of a target pest or pathogen. The FIC of each component is derived by dividing the concentration of the agent present in that well of the microtiter plate by the minimal inhibitory concentration (MIC) needed of that agent alone to inhibit growth of the target pest or pathogen. The FIC index is then the sum of these values for both agents in that well of the microtiter plate. […] Fractional inhibitory concentration indices may then used as measure of synergy. […] When the FIC index is equal to 1, the combination is additive.
Then, serial dilutions of these initial compositions in successive wells in the row of the microtiter plate were used to assay the pesticidal composition under the same conditions to determine the concentration of the composition combining the two agents corresponding to the microtiter well in which growth inhibition of the target pest or organism ceases.
A culture of the representative fungal pathogen, namely Fusarium oxysporum, Botrytis cinerea, or Sclerotinia sclerotiorum, for example, is grown to exponential phase in potato dextrose broth (PDB).

The subject of assay [3] is Fusarium oxysporum. Conditions: Fusarium oxysporum, Compound B alone. In a few lines: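 Checkerboard dilutions of pesticidal active plus C6–C10 (or C11/C12) aliphatic acid in 96-well plates; growth scored by resazurin colour change, optionally visual.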
For assay [4], the system named is Botrytis cinerea. Conditions: Botrytis cinerea, 48 h, Compound B alone, 48 hours incubation, read-out: MIC (B). The procedure, abridged: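 Checkerboard microdilution of pesticidal active ingredient combined with C6–C10 (or C11/C12) aliphatic acid against Botrytis cinerea, with growth read by resazurin colour change plus visual check. FIC index = sum of each agent's concentration in the inhibiting well divided by its MIC alone; 1 denotes additivity.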

Setting [5] is: 24 h, Table 3, 24 hour incubation, read-out: MIC(B).
The mark [6] stands for this setting: 24 h, Table 4, 24 hour incubation, read-out: MIC (B).
Setting [7] is: 48 h, Table 27, 48 hours incubation, read-out: MIC (B).
Where [8] appears, read: 48 h, Table 28, 48 hours incubation, read-out: MIC (B).
Setting [9] is: 48 h, Table 30, 48 hours incubation, read-out: MIC (B).
Setting [10] is: 48 h, Table 32, 48 hours incubation, read-out: MIC (B).

Structures are written as SMILES. Where two headings read alike, the source gives them in different places.

On to `C=CCCCCCCCC(=O)O` [9-Decenoic acid, 9-decenoic acid], for which the MIC amounted to 78.1 µg/mL in assay [1] (7 days incubation); 39.1 µg/mL in assay [1] (Table 33, 7 days incubation); 39.1 µg/mL in assay [1] (Table 35, 7 days incubation); 39.1 µg/mL in assay [1] (Table 36, 7 days incubation); 156 µg/mL in assay [1] (Table 37, 7 days incubation); 78.1 µg/mL in assay [1] (Table 38, 7 days incubation). Also, the minimum inhibitory concentration (MIC) came to 39.1 µg/mL in assay [1] (Table 39, 7 days incubation); 78.1 µg/mL in assay [1] (Table 40, 7 days incubation); 78.1 µg/mL in assay [1] (Table 41, 7 days incubation); 39.1 µg/mL in assay [2] (Table 60); 71.7 µg/mL in assay [3] (setting [5]); 71.7 µg/mL in assay [3] (setting [6]). Further, the MIC in assay [3] (setting [7]) is 312 µg/mL; in assay [3] (setting [8]) it was 312 µg/mL; in assay [3] (setting [9]), 156 µg/mL; in assay [3] (setting [10]) it was 78.1 µg/mL; in assay [4] (Table 43) it was 156 µg/mL; in assay [4] (Table 44) it was 78.1 µg/mL. The MIC in assay [4] (Table 45) turned out to be 78.1 µg/mL; in assay [4] (Table 46), 39.1 µg/mL; in assay [4] (Table 47), 78.1 µg/mL; in assay [4] (Table 48), 78.1 µg/mL; in assay [4] (Table 49), 156 µg/mL; in assay [4] (Table 50), 39.1 µg/mL. For the same compound, the MIC is 78.1 µg/mL in assay [4] (Table 54), 78.1 µg/mL in assay [4] (Table 56) and 156 µg/mL in assay [4] (Table 58).

For the compound `C=CCCCC(=O)O` [5-Hexenoic acid], the MIC was 156 µg/mL in assay [1] (Table 33, 7 days incubation); 156 µg/mL in assay [1] (Table 35, 7 days incubation); 312 µg/mL in assay [2] (Table 60); 312 µg/mL in assay [3] (setting [7]); 156 µg/mL in assay [4] (Table 43); 78.1 µg/mL in assay [4] (Table 44). Further, the MIC in assay [4] (Table 45) was found to be 312 µg/mL; in assay [4] (Table 50), 156 µg/mL; in assay [4] (Table 54), 312 µg/mL.

For the compound `CCCCCCCCC(=O)O` [Nonanoic acid, nonanoic acid], the minimal inhibitory concentration (MIC) in assay [1] (7 days incubation) is 39.1 µg/mL; in assay [1] (Table 16, incubation 7 days) it was 19.5 µg/mL; in assay [1] (Table 17, incubation 7 days), 78.1 µg/mL; in assay [1] (Table 19, incubation 7 days), 78.1 µg/mL; in assay [1] (Table 20A, incubation 7 days), 39.1 µg/mL; in assay [2] (Table 60), 156 µg/mL. Besides, the MIC in assay [3] (48 h, Table 12, incubation 48 hours, read-out: MIC (B)) came to 312 µg/mL; in assay [4] (Table 24) it was 156 µg/mL.

Regarding `CCCC(O)CC(=O)O` (stereo not shown) [3-Hydroxyhexanoic acid, 3-hydroxyhexanoic acid], the MIC is 5000 µg/mL in assay [1] (Table 16, incubation 7 days); 2500 µg/mL in assay [1] (Table 20B, incubation 7 days); 2500 µg/mL in assay [2]; 2500 µg/mL in assay [3] (48 h, Table 15B, incubation 48 hours, read-out: MIC (B)); 2500 µg/mL in assay [4] (Table 51); 5000 µg/mL in assay [4] (Table 56). Moreover, the MIC in assay [4] (Table 59) was 2500 µg/mL.

Turning to `CCCCCCC=CCC(=O)O` [3-Decenoic acid, 3-decenoic acid], the MIC in assay [1] (7 days incubation) was 156 µg/mL; in assay [1] (Table 33, 7 days incubation), 39.1 µg/mL; in assay [1] (Table 35, 7 days incubation) it was 39.1 µg/mL; in assay [1] (Table 38, 7 days incubation), 39.1 µg/mL; in assay [1] (Table 40, 7 days incubation), 78.1 µg/mL; in assay [1] (Table 41, 7 days incubation), 78.1 µg/mL. The minimal inhibitory concentration (MIC) in assay [2] (Table 60) worked out at 78.1 µg/mL; in assay [3] (setting [5]), 73.4 µg/mL; in assay [3] (setting [6]), 73.4 µg/mL; in assay [3] (setting [7]), 312 µg/mL; in assay [3] (setting [8]), 78.1 µg/mL; in assay [3] (48 h, Table 29, 48 hours incubation, read-out: MIC (B)), 156 µg/mL. Besides, the MIC in assay [3] (48 h, Table 31, 48 hours incubation, read-out: MIC (B)) is 78.1 µg/mL; in assay [4] (Table 43), 78.1 µg/mL; in assay [4] (Table 44), 78.1 µg/mL; in assay [4] (Table 45) it was 78.1 µg/mL; in assay [4] (Table 47), 78.1 µg/mL; in assay [4] (Table 49), 78.1 µg/mL. Further, the MIC in assay [4] (Table 50) stood at 78.1 µg/mL; in assay [4] (Table 53), 39.1 µg/mL; in assay [4] (Table 54) it was 39.1 µg/mL; in assay [4] (Table 56) it was 78.1 µg/mL; in assay [4] (Table 58), 156 µg/mL.

Turning to `C/C=C/C=C/C(=O)O` [(2E,4E)-2,4-hexadienoic acid], the MIC in assay [1] (Table 33, 7 days incubation) came out at 125 µg/mL; in assay [2] (Table 60), 125 µg/mL; in assay [3] (24 h, Table 1, 24 hour incubation, read-out: MIC(B)), 125 µg/mL; in assay [3] (24 h, Table 2, 24 hour incubation, read-out: MIC (B)), 125 µg/mL; in assay [3] (setting [7]), 25 µg/mL; in assay [4] (Table 43), 62.5 µg/mL. The MIC was determined as 62.5 µg/mL in assay [4] (Table 44), 125 µg/mL in assay [4] (Table 56) and 250 µg/mL in assay [4] (Table 58).

In the case of `CCCCCC/C=C/C(=O)O` [Trans-2-nonenoic acid], the MIC in assay [1] (7 days incubation) stood at 78.1 µg/mL; in assay [1] (Table 33, 7 days incubation), 19.5 µg/mL; in assay [1] (Table 36, 7 days incubation), 39.1 µg/mL; in assay [1] (Table 37, 7 days incubation), 78.1 µg/mL; in assay [1] (Table 38, 7 days incubation) it was 39.1 µg/mL; in assay [1] (Table 39, 7 days incubation) it was 19.5 µg/mL. Moreover, the MIC amounted to 19.5 µg/mL in assay [1] (Table 40, 7 days incubation); 39.1 µg/mL in assay [1] (Table 41, 7 days incubation); 156 µg/mL in assay [2]; 78.1 µg/mL in assay [2] (Table 60); 156 µg/mL in assay [3] (setting [8]); 312 µg/mL in assay [3] (setting [9]). Besides, the MIC in assay [3] (setting [10]) is 312 µg/mL; in assay [4] (Table 43), 78.1 µg/mL; in assay [4] (Table 44) it was 39.1 µg/mL; in assay [4] (Table 45), 39.1 µg/mL; in assay [4] (Table 46) it was 19.5 µg/mL; in assay [4] (Table 47), 78.1 µg/mL. The MIC in assay [4] (Table 49) and in assay [4] (Table 56) was 156 µg/mL in each case.

Broadly, the MIC is the smallest concentration in the dilution series that meets the test's criterion for growth inhibition.
